Reference: ChEMBL document CHEMBL4813981, “Synthesis and in vitro antibacterial activity of new aminothiazole-oximepiperidone cephalosporins” (2021)
Converted amounts (≈) assume the structure as drawn.

How the values were obtained:
Escherichia coli [1] = assay: Antibacterial activity against Escherichia coli 15-4 overexpressing extended spectrum beta-lactamases assessed as reduction in bacterial growth; type: functional
Escherichia coli [2] = assay: Antibacterial activity against Escherichia coli 15-5 overexpressing extended spectrum beta-lactamases assessed as reduction in bacterial growth; type: functional
Klebsiella pneumoniae [3] = assay: Antibacterial activity against Klebsiella pneumoniae ATCC 700603 assessed as reduction in bacterial growth; type: functional
Escherichia coli [4] = assay: Antibacterial activity against Escherichia coli ATCC 35218 assessed as reduction in bacterial growth in the presence of Avibactam; type: functional
Klebsiella pneumoniae [5] = assay: Antibacterial activity against Klebsiella pneumoniae ATCC 700603 assessed as reduction in bacterial growth in the presence of Avibactam; type: functional
Klebsiella pneumoniae [6] = assay: Antibacterial activity against Multidrug resistant Klebsiella pneumoniae KR 15-1 assessed as reduction in bacterial growth in the presence of Avibactam; type: functional
Klebsiella pneumoniae [7] = assay: Antibacterial activity against Multidrug resistant Klebsiella pneumoniae KR 15-2 assessed as reduction in bacterial growth in the presence of Avibactam; type: functional
Klebsiella pneumoniae [8] = assay: Antibacterial activity against Multidrug resistant Klebsiella pneumoniae KR 15-3 assessed as reduction in bacterial growth in the presence of Avibactam; type: functional
Pseudomonas aeruginosa [9] = assay: Antibacterial activity against Pseudomonas aeruginosa ATCC 27853 assessed as reduction in bacterial growth in the presence of Avibactam; type: functional
Escherichia coli [10] = assay: Antibacterial activity against ESBLs negative Carbapenem-sensitive Escherichia coli 17-19 assessed as reduction in bacterial growth; type: functional
Enterobacter cloacae [11] = assay: Antibacterial activity against Enterobacter cloacae 17-6 assessed as reduction in bacterial growth; type: functional
Klebsiella aerogenes [12] = assay: Antibacterial activity against Enterobacter aerogenes 15-4 assessed as reduction in bacterial growth; type: functional
Pseudomonas aeruginosa [13] = assay: Antibacterial activity against Carbapenem- sensitive Pseudomonas aeruginosa 17-9 assessed as reduction in bacterial growth; type: functional
Acinetobacter baumannii [14] = assay: Antibacterial activity against Carbapenem- resistant Acinetobacter baumannii 17-6 assessed as reduction in bacterial growth in the presence of Avibactam; type: functional
Acinetobacter baumannii [15] = assay: Antibacterial activity against Carbapenem- resistant Acinetobacter baumannii 17-9 assessed as reduction in bacterial growth in the presence of Avibactam; type: functional
Acinetobacter baumannii [16] = assay: Antibacterial activity against Carbapenem- resistant Acinetobacter baumannii 17-11 assessed as reduction in bacterial growth in the presence of Avibactam; type: functional
Klebsiella pneumoniae [17] = assay: Antibacterial activity against ESBLs positive Carbapenem-sensitive Klebsiella pneumoniae 17-1 assessed as reduction in bacterial growth in the presence of Avibactam; type: functional
Klebsiella pneumoniae [18] = assay: Antibacterial activity against ESBLs positive Carbapenem-sensitive Klebsiella pneumoniae 17-3 assessed as reduction in bacterial growth in the presence of Avibactam; type: functional
Klebsiella pneumoniae [19] = assay: Antibacterial activity against ESBLs positive Carbapenem-sensitive Klebsiella pneumoniae 17-14 assessed as reduction in bacterial growth in the presence of Avibactam; type: functional
Klebsiella pneumoniae [20] = assay: Antibacterial activity against ESBLs negative Carbapenem-sensitive Klebsiella pneumoniae 17-17 assessed as reduction in bacterial growth in the presence of Avibactam; type: functional
Escherichia coli [21] = assay: Antibacterial activity against ESBLs positive Carbapenem-sensitive Escherichia coli 17-18 assessed as reduction in bacterial growth in the presence of Avibactam; type: functional
Enterobacter cloacae [22] = assay: Antibacterial activity against Enterobacter cloacae 17-10 assessed as reduction in bacterial growth in the presence of Avibactam; type: functional
Klebsiella aerogenes [23] = assay: Antibacterial activity against Enterobacter aerogenes 17-1 assessed as reduction in bacterial growth in the presence of Avibactam; type: functional
Klebsiella aerogenes [24] = assay: Antibacterial activity against Enterobacter aerogenes 17-5 assessed as reduction in bacterial growth in the presence of Avibactam; type: functional
Klebsiella aerogenes [25] = assay: Antibacterial activity against Enterobacter aerogenes 15-5 assessed as reduction in bacterial growth in the presence of Avibactam; type: functional
Pseudomonas aeruginosa [26] = assay: Antibacterial activity against Carbapenem- sensitive Pseudomonas aeruginosa 17-11 assessed as reduction in bacterial growth in the presence of Avibactam; type: functional
Pseudomonas aeruginosa [27] = assay: Antibacterial activity against Carbapenem- sensitive Pseudomonas aeruginosa 17-29 assessed as reduction in bacterial growth in the presence of Avibactam; type: functional
Klebsiella pneumoniae [28] = assay: Bactericidal activity against Carbapenem- resistant Klebsiella pneumoniae KR 15-7 assessed as reduction in bacterial growth; type: functional
Escherichia coli [29] = assay: Bactericidal activity against ESBLs negative Carbapenem--sensitive Escherichia coli 17-9 assessed as reduction in bacterial growth; type: functional
Escherichia coli [30] = assay: Bactericidal activity against ESBLs positive Carbapenem-sensitive Escherichia coli 17-3 assessed as reduction in bacterial growth; type: functional
Klebsiella aerogenes [31] = assay: Bactericidal activity against Enterobacter aerogenes 15-4 assessed as reduction in bacterial growth; type: functional
Pseudomonas aeruginosa [32] = assay: Bactericidal activity against Pseudomonas aeruginosa ATCC 27853 assessed as reduction in bacterial growth; type: functional
Acinetobacter baumannii [33] = assay: Bactericidal activity against Carbapenem- resistant Acinetobacter baumannii 17-5 assessed as reduction in bacterial growth in the presence of avibactam; type: functional
Acinetobacter baumannii [34] = assay: Bactericidal activity against Carbapenem- resistant Acinetobacter baumannii 17-11 assessed as reduction in bacterial growth in the presence of avibactam; type: functional
Klebsiella pneumoniae [35] = assay: Bactericidal activity against Carbapenem- resistant Klebsiella pneumoniae KR 15-4 assessed as reduction in bacterial growth in the presence of avibactam; type: functional
Klebsiella pneumoniae [36] = assay: Bactericidal activity against Carbapenem- resistant Klebsiella pneumoniae KR 15-7 assessed as reduction in bacterial growth in the presence of avibactam; type: functional
Klebsiella pneumoniae [37] = assay: Bactericidal activity against Carbapenem- resistant Klebsiella pneumoniae KR 15-8 assessed as reduction in bacterial growth in the presence of avibactam; type: functional
Klebsiella pneumoniae [38] = assay: Bactericidal activity against ESBLs negative Carbapenem-sensitive Klebsiella pneumoniae 17-16 assessed as reduction in bacterial growth in the presence of avibactam; type: functional
Escherichia coli [39] = assay: Bactericidal activity against ESBLs negative carbapenem-sensitive Escherichia coli 17-7 assessed as reduction in bacterial growth in the presence of avibactam; type: functional
Escherichia coli [40] = assay: Bactericidal activity against ESBLs positive carbapenem-sensitive Escherichia coli 17-3 assessed as reduction in bacterial growth in the presence of avibactam; type: functional
Enterobacter cloacae [41] = assay: Bactericidal activity against Enterobacter cloacae 17-3 assessed as reduction in bacterial growth in the presence of avibactam; type: functional
Klebsiella aerogenes [42] = assay: Bactericidal activity against Enterobacter aerogenes 17-3 assessed as reduction in bacterial growth in the presence of avibactam; type: functional
Pseudomonas aeruginosa [43] = assay: Bactericidal activity against carbapenem-sensitive Pseudomonas aeruginosa 17-7 assessed as reduction in bacterial growth in the presence of avibactam; type: functional
Pseudomonas aeruginosa [44] = assay: Bactericidal activity against carbapenem-sensitive Pseudomonas aeruginosa 17-10 assessed as reduction in bacterial growth in the presence of avibactam; type: functional
Pseudomonas aeruginosa [45] = assay: Bactericidal activity against carbapenem-sensitive Pseudomonas aeruginosa 17-26 assessed as reduction in bacterial growth in the presence of avibactam; type: functional
Pseudomonas aeruginosa [46] = assay: Bactericidal activity against carbapenem-sensitive Pseudomonas aeruginosa 17-29 assessed as reduction in bacterial growth in the presence of avibactam; type: functional
Escherichia coli [47] = assay: Bactericidal activity against Escherichia coli NCTC 13353 assessed as reduction in bacterial growth in the presence of avibactam; type: functional
Pseudomonas aeruginosa [48] = assay: Bactericidal activity against Pseudomonas aeruginosa ATCC 27853 assessed as reduction in bacterial growth in the presence of avibactam; type: functional
Pseudomonas aeruginosa [49] = assay: Antibacterial activity against Carbapenem- resistant Pseudomonas aeruginosa 17-5 assessed as reduction in bacterial growth

Nc1nc(/C(=N/OCc2cc(=O)c(O)cn2O)C(=O)N[C@@H]2C(=O)N3C(C(=O)O)=CCS[C@H]23)cs1
MIC (Escherichia coli [1]): > 64 µg/mL | MIC (Escherichia coli [2]): > 64 µg/mL | MIC (Klebsiella pneumoniae [3]): 64 µg/mL (≈ 126 µM) | MIC (Escherichia coli [4]): 0.25 µg/mL | MIC (Klebsiella pneumoniae [5]): 64 µg/mL | MIC (Klebsiella pneumoniae [6]): 1 µg/mL | MIC (Klebsiella pneumoniae [7]): 1 µg/mL | MIC (Klebsiella pneumoniae [8]): 1 µg/mL | MIC (Pseudomonas aeruginosa [9]): 1 µg/mL | MIC (Escherichia coli [10]): 1 µg/mL (≈ 1.97 µM) | MIC (Enterobacter cloacae [11]): 2 µg/mL (≈ 3.93 µM) | MIC (Klebsiella aerogenes [12]): 4 µg/mL (≈ 7.87 µM) | MIC (Pseudomonas aeruginosa [13]): 4 µg/mL (≈ 7.87 µM) | MIC (Acinetobacter baumannii [14]): 16 µg/mL | MIC (Acinetobacter baumannii [15]): 16 µg/mL | MIC (Acinetobacter baumannii [16]): 8 µg/mL | MIC (Klebsiella pneumoniae [17]): 0.25 µg/mL | MIC (Klebsiella pneumoniae [18]): 4 µg/mL | MIC (Klebsiella pneumoniae [19]): 0.5 µg/mL | MIC (Klebsiella pneumoniae [20]): 0.125 µg/mL | MIC (Escherichia coli [21]): 0.5 µg/mL | MIC (Enterobacter cloacae [22]): 0.5 µg/mL | MIC (Klebsiella aerogenes [23]): 2 µg/mL | MIC (Klebsiella aerogenes [24]): 2 µg/mL | MIC (Klebsiella aerogenes [25]): 1 µg/mL | MIC (Pseudomonas aeruginosa [26]): 2 µg/mL | MIC (Pseudomonas aeruginosa [27]): 1 µg/mL | MBC (Klebsiella pneumoniae [28]): > 64 µg/mL | MBC (Escherichia coli [29]): 2 µg/mL (≈ 3.93 µM) | MBC (Escherichia coli [30]): 2 µg/mL (≈ 3.93 µM) | MBC (Klebsiella aerogenes [31]): 4 µg/mL (≈ 7.87 µM) | MBC (Pseudomonas aeruginosa [32]): 16 µg/mL (≈ 31.5 µM) | MBC (Acinetobacter baumannii [33]): 16 µg/mL | MBC (Acinetobacter baumannii [34]): > 64 µg/mL | MBC (Klebsiella pneumoniae [35]): 8 µg/mL | MBC (Klebsiella pneumoniae [36]): 2 µg/mL | MBC (Klebsiella pneumoniae [37]): 16 µg/mL | MBC (Klebsiella pneumoniae [38]): 0.06 µg/mL | MBC (Escherichia coli [39]): 1 µg/mL | MBC (Escherichia coli [40]): 0.25 µg/mL | MBC (Enterobacter cloacae [41]): 8 µg/mL | MBC (Klebsiella aerogenes [42]): 0.5 µg/mL | MBC (Pseudomonas aeruginosa [43]): 0.25 µg/mL | MBC (Pseudomonas aeruginosa [44]): 4 µg/mL | MBC (Pseudomonas aeruginosa [45]): 4 µg/mL | MBC (Pseudomonas aeruginosa [46]): 8 µg/mL | MBC (Escherichia coli [47]): 0.5 µg/mL | MBC (Pseudomonas aeruginosa [48]): 4 µg/mL | MIC (Pseudomonas aeruginosa [49]): 64 µg/mL (≈ 126 µM)

CC(C)(O/N=C(\C(=O)N[C@@H]1C(=O)N2C(C(=O)[O-])=C(C[n+]3ccccc3)CS[C@H]12)c1csc(N)n1)C(=O)O [CEFTAZIDIME]
MIC (Escherichia coli [1]): 16 µg/mL (≈ 29.3 µM) | MIC (Escherichia coli [2]): 32 µg/mL (≈ 58.5 µM) | MIC (Klebsiella pneumoniae [3]): 32 µg/mL (≈ 58.5 µM) | MIC (Escherichia coli [4]): 0.06 µg/mL | MIC (Klebsiella pneumoniae [5]): 4 µg/mL | MIC (Klebsiella pneumoniae [6]): 2 µg/mL | MIC (Klebsiella pneumoniae [7]): 2 µg/mL | MIC (Klebsiella pneumoniae [8]): 2 µg/mL | MIC (Pseudomonas aeruginosa [9]): 0.5 µg/mL | MIC (Acinetobacter baumannii [14]): 8 µg/mL | MIC (Acinetobacter baumannii [15]): 8 µg/mL | MIC (Acinetobacter baumannii [16]): 8 µg/mL | MIC (Klebsiella pneumoniae [17]): 1 µg/mL | MIC (Klebsiella pneumoniae [18]): 2 µg/mL | MIC (Klebsiella pneumoniae [19]): 2 µg/mL | MIC (Klebsiella pneumoniae [20]): 0.125 µg/mL | MIC (Escherichia coli [21]): 0.5 µg/mL | MIC (Enterobacter cloacae [22]): 1 µg/mL | MIC (Klebsiella aerogenes [23]): 1 µg/mL | MIC (Klebsiella aerogenes [24]): 0.5 µg/mL | MIC (Klebsiella aerogenes [25]): 0.5 µg/mL | MIC (Pseudomonas aeruginosa [26]): 0.5 µg/mL | MIC (Pseudomonas aeruginosa [27]): 0.5 µg/mL | MBC (Klebsiella pneumoniae [28]): > 64 µg/mL | MBC (Escherichia coli [29]): 4 µg/mL (≈ 7.32 µM) | MBC (Escherichia coli [30]): 2 µg/mL (≈ 3.66 µM) | MBC (Klebsiella aerogenes [31]): 0.5 µg/mL (≈ 0.915 µM) | MBC (Pseudomonas aeruginosa [32]): 1 µg/mL (≈ 1.83 µM) | MBC (Acinetobacter baumannii [33]): 16 µg/mL | MBC (Acinetobacter baumannii [34]): 32 µg/mL | MBC (Klebsiella pneumoniae [35]): 2 µg/mL | MBC (Klebsiella pneumoniae [36]): 2 µg/mL | MBC (Klebsiella pneumoniae [37]): 4 µg/mL | MBC (Klebsiella pneumoniae [38]): 0.25 µg/mL | MBC (Escherichia coli [39]): 0.125 µg/mL | MBC (Escherichia coli [40]): 0.25 µg/mL | MBC (Enterobacter cloacae [41]): 0.25 µg/mL | MBC (Klebsiella aerogenes [42]): 0.25 µg/mL | MBC (Pseudomonas aeruginosa [43]): 0.25 µg/mL | MBC (Pseudomonas aeruginosa [44]): 0.5 µg/mL | MBC (Pseudomonas aeruginosa [45]): 2 µg/mL | MBC (Pseudomonas aeruginosa [46]): 4 µg/mL | MBC (Escherichia coli [47]): 1 µg/mL | MBC (Pseudomonas aeruginosa [48]): 4 µg/mL | MIC (Pseudomonas aeruginosa [49]): 64 µg/mL (≈ 117 µM)

C[C@@H](O)[C@H]1C(=O)N2C(C(=O)O)=C(S[C@@H]3CN[C@H](C(=O)N(C)C)C3)[C@H](C)[C@H]12 [MEROPENEM]
MIC (Escherichia coli [10]): < 0.03 µg/mL | MIC (Enterobacter cloacae [11]): < 0.03 µg/mL | MIC (Klebsiella aerogenes [12]): < 0.03 µg/mL | MIC (Pseudomonas aeruginosa [13]): 0.25 µg/mL (≈ 0.652 µM)
